Positions of bridges follow the written chain, without caps; N, C: chain ends. Residues, ends and D or L forms follow the SMILES beside them.

Assay [1] has as its system serum calcium concentration. Briefly: Biological assay of calcitonin analogs in vivo: reduction of serum calcium concentration, 2x2 parallel line assay. Also noted: species or system Rats. As to the method:
The biological potency of des-2-serine, 3-asparagine-salmon calcitonin was determined by comparing the reduction of serum calcium concentration which followed administration by graded doses of des-Ser^2, […] -SCT and synthetic salmon calcitonin standard. Rats were divided into four groups of seven animals, and each group was assigned at random to a dose of standard or test solution. Low and high doses were chosen from the linear portion of the dose-response curve. For the salmon calcitonin standard, the values were 0.7 and 2.1 ng. peptide/100 g. body weight (BW). This dose approximates 3 and 9 MU/100 g. BW. Peptides were given by subcutaneous injection (0.2 ml/100 g. BW) and blood was withdrawn 1 hour later for serum calcium determination. Sera are processed and analyzed within two hours of collection. […]. Results were analyzed by a 2×2 parallel line assay [Gaddum, J. H. J. Pharm. Pharmacol., 6, 345 (1953)]. The standard salmon calcitonin used was independently determined to contain greater than 4,000 IU/mg. des-Ser^2, Asn^3 -SCT assayed at 4350 IU/mg.

For assay [2] the following is noted: literature value, Monikawa et al.; cited from earlier work.

Take `CC(C)C[C@H](NC(=O)[C@H](CCCCN)NC(=O)CNC(=O)[C@H](CC(C)C)NC(=O)[C@@H](NC(=O)[C@@H]1CSSC[C@H](N)C(=O)N[C@@H](CC(C)C)C(=O)N[C@@H](CO)C(=O)N[C@@H]([C@@H](C)O)C(=O)N1)C(C)C)C(=O)N[C@@H](CO)C(=O)N[C@@H](CCC(N)=O)C(=O)N[C@@H](CCC(=O)O)C(=O)N[C@@H](CC(C)C)C(=O)N[C@@H](Cc1c[nH]cn1)C(=O)N[C@@H](CCCCN)C(=O)N[C@@H](CC(C)C)C(=O)N[C@@H](CCC(N)=O)C(=O)N[C@H](C(=O)N[C@@H](Cc1ccc(O)cc1)C(=O)N1CCC[C@H]1C(=O)N[C@@H](CCCNC(=N)N)C(=O)N[C@H](C(=O)N[C@@H](CC(N)=O)C(=O)N[C@H](C(=O)NCC(=O)N[C@@H](CO)C(=O)NCC(=O)N[C@H](C(=O)N1CCC[C@H]1C(N)=O)[C@@H](C)O)[C@@H](C)O)[C@@H](C)O)[C@@H](C)O` [des-Ser^2, Asn^3 -SCT, des-2-serine, 3-asparagine-salmon calcitonin] (H-CLSTCVLGKLSQELHKLQTYPRTNTGSGTP-NH2; disulfide 1-5): in assay [1] (rats, subcutaneous injection, blood withdrawn 1 hour later, vs synthetic salmon calcitonin standard), the “biological potency (reduction of serum calcium concentration)” value was found to be 4350 IU/mg. For the molecule `CC(C)C[C@H](NC(=O)[C@H](CCCCN)NC(=O)CNC(=O)[C@H](CC(C)C)NC(=O)[C@@H](NC(=O)[C@@H]1CSSC[C@H](N)C(=O)N[C@@H](CO)C(=O)N[C@@H](CC(N)=O)C(=O)N[C@@H](CC(C)C)C(=O)N[C@@H](CO)C(=O)N[C@@H]([C@@H](C)O)C(=O)N1)C(C)C)C(=O)N[C@@H](CO)C(=O)N[C@@H](CCC(N)=O)C(=O)N[C@@H](CCC(=O)O)C(=O)N[C@@H](CC(C)C)C(=O)N[C@@H](Cc1c[nH]cn1)C(=O)N[C@@H](CCCCN)C(=O)N[C@@H](CC(C)C)C(=O)N[C@@H](CCC(N)=O)C(=O)N[C@H](C(=O)N[C@@H](Cc1ccc(O)cc1)C(=O)N1CCC[C@H]1C(=O)N[C@@H](CCCNC(=N)N)C(=O)N[C@H](C(=O)N[C@@H](CC(N)=O)C(=O)N[C@H](C(=O)NCC(=O)N[C@@H](CO)C(=O)NCC(=O)N[C@H](C(=O)N1CCC[C@H]1C(N)=O)[C@@H](C)O)[C@@H](C)O)[C@@H](C)O)[C@@H](C)O` [standard salmon calcitonin, Salmon calcitonin], in assay [1] (standard used in the assay, independently determined), the “potency of the standard salmon calcitonin, independently determined” value is recorded as “greater than 4,000 IU/mg”. For the molecule “eel calcitonin [synthetic eel calcitonin]”, in assay [2], the hypocalcemic potency entry is “around 4300 IU/mg”. For “(1,7-α-L-amino-suberic acid)eel calcitonin”, the hypocalcemic potency entry in assay [2] was “about 3400 IU/mg”.
